Laboratory results as given in patent publication US12358960B2, “Selective targeting of ubiquitin- and ubiquitin-like E1-activating enzymes by structurally-stabilized peptides” (Dana-Farber Cancer Institute, Inc., priority 2019, dated 2025).
“Also recorded” adds a separate entry of the source. Bridge positions count the residues as written; N and C are the ends. Square brackets hold non-standard residues; d marks the D form. Ends that are not written are not given here. * marks the point of attachment. R8 = C=CCCCCCC[C@@](C)(N)C(=O)O; S5 = C=CCCC[C@](C)(N)C(=O)O; Nle = CCCC[C@H](N)C(=O)O; Dab = NCC[C@H](N)C(=O)O; Acryloyl = C=CC(=O)*

Target: T1, Human E1 activating enzyme UBA1 (Homo sapiens, UniProt P22314)
T1 sequence (P22314 1-1058): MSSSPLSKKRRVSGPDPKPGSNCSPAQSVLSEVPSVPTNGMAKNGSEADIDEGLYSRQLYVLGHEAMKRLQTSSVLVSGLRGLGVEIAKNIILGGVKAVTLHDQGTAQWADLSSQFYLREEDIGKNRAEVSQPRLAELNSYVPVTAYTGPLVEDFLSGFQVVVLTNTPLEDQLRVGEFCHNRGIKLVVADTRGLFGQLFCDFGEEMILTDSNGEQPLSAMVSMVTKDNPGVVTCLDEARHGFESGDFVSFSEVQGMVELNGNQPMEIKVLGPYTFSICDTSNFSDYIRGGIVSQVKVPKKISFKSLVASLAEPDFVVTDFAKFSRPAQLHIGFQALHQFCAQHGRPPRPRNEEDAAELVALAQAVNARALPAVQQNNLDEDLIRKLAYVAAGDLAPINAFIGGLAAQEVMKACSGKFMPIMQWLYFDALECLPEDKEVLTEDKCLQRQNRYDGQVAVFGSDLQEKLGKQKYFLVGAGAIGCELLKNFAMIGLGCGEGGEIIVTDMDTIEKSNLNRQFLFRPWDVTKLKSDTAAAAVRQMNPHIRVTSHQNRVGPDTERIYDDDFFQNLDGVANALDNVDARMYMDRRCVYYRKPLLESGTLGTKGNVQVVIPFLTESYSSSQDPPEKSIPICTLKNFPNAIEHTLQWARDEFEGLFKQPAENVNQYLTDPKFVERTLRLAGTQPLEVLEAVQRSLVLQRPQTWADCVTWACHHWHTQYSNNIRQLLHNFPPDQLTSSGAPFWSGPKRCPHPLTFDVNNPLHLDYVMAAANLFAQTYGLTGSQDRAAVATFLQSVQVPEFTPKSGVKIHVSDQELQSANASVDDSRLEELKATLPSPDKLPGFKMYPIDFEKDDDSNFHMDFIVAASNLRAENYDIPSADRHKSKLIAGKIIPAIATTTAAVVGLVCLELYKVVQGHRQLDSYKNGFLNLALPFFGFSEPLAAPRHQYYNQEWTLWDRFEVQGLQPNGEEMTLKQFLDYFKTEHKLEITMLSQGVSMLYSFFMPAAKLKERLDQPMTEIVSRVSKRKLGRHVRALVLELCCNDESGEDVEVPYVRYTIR
Assay: In vitro enzyme inhibition assay: E1-mediated ubiquitin thioester transfer to E2 (band shift, silver stain)
Format: biochemical
Details: for inhibition of E1-mediated thioester transfer to E2 by warhead-bearing stapled peptides: Example 8; for inhibition of E1-mediated ubiquitin transfer to E2 (conversion of E2 to E2~ubiquitin): 100 μM peptide, staple scan; for inhibition of E1-mediated ubiquitin transfer to E2 (conversion of E2 to E2~ubiquitin) / inhibition of E1-mediated thioester transfer to E2, dose response: UbcH5b E2 enzyme, 45 minutes; for inhibition of E1-mediated thioester transfer to E2 by mutant / additional stapled peptides: SAH-UBE2A-11 variants and controls, Examples 4, 7, 13; for inhibition of E1-mediated thioester transfer to E2, dose response: range of peptide concentrations
Description: In vitro Enzyme Inhibition Assays: To assess an E2 hA peptide's inhibition of an E1 enzyme, an in vitro enzyme inhibition assay can be used, for example. The in vitro enzyme inhibition assay measures an E2 hA peptide's ability to inhibit conjugation of ubiquitin to E2 by E1. Briefly, recombinant E1 (e.g., UBA1), recombinant E2 (e.g., UBE2A), ubiquitin, and Mg-ATP are combined in the presence of an E2 hA peptide or vehicle control (e.g., 1% DMSO) for a period of time (e.g., 30 minutes) at room temperature in a buffer containing, e.g., 50 mM NaCl, 50 mM HEPES pH 7.5. Control reaction includes no E1. Reactions are quenched by addition of SDS-containing loading dye and samples are resolved on a gel (e.g., a 4-12% Bis-Tris protein gel) under nonreducing conditions. Proteins on the gel are visualized via, e.g., silver stain. Conjugation of ubiquitin to E2 by E1 is monitored by conversion of free E2 (˜17 kDa) to E2˜ubiquitin conjugate (˜26 kDa).
Control reaction included no E1 enzyme. Reactions were quenched by addition of SDS-containing loading dye and samples were resolved on a 4-12% Bis-Tris protein gel under nonreducing conditions. Proteins were visualized via silver stain. Conjugation of ubiquitin to E2 by E1 was monitored by conversion of free E2 (17 kDa) to E2˜ubiquitin conjugate (26 kDa).
The ability of the peptides to inhibit E1-mediated thioester transfer to E2 was evaluated. Human E1 activating enzyme UBA1 (10 nM), UbcH5b E2 enzyme (150 nM), ubiquitin (1 μM), and Mg-ATP (20 μM) were combined in the presence of stapled peptide at a range of concentrations or vehicle control (1% DMSO) for 45 minutes at room temperature in buffer containing 50 mM NaCl, 50 mM HEPES, 1 mM TCEP pH 7.5. Reactions were quenched by addition of SDS-containing loading dye and samples were resolved on a 4-12% Bis-Tris protein gel under nonreducing conditions. Proteins were visualized via silver stain. Conjugation of ubiquitin to E2 by E1 was monitored by conversion of free E2 (17 kDa) to E2˜ubiquitin conjugate (26 kDa). Inhibition percentage was calculated from densitometry of silver stain images.
Streptavidin-biotin pull-down assays: For recombinant protein pull-downs, 10 pmol recombinant human UBA1 was incubated with 5 nmol C-terminally biotinylated SAH-UBE2A or DMSO vehicle control in a total volume of 1 mL binding buffer (50 mM NaCl, 20 mM HEPES, pH 7.4, 5 mM DTT) for 1.5 hours at 4° C. 30 μL of pre-equilibrated streptavidin agarose beads were then added and incubated for an additional 1.5 hours at 4° C. The beads were pelleted by centrifugation and washed three times with NP-40 buffer (20 mM HEPES, pH 7.4, 50 mM NaCl, 5 mM DTT, 0.5% [v/v] NP-40) before eluting the protein sample from the beads by heating at 70° C. for 10 min in 3×SDS loading buffer. Samples were subjected to electrophoresis and silver staining (Pierce 24612). For pull-down from cellular lysates, 0.75 mg HeLa cell lysate was incubated with 5 nmol C-terminally biotinylated SAH-UBE2A or DMSO vehicle control in a total volume of 1 mL binding buffer (50 mM NaCl, 20 mM HEPES, pH 7.4, 5 mM DTT) containing protease-phosphatase inhibitor cocktail for 2 hours at 4° C. 30 μL of pre-equilibrated streptavidin agarose beads (ThermoFisher 20357) were then added and incubated for an additional 1.5 hours at 4° C. The beads were pelleted by centrifugation and washed three times with NP-40 buffer (20 mM HEPES, pH 7.4, 50 mM NaCl, 5 mM DTT, 0.5% [v/v] NP-40) before eluting the protein sample from the beads by heating at 70° C. for 10 min in 3×SDS loading buffer. Proteins were separated by SDS-PAGE gel electrophoresis and detected by western blot against UBE1 (Abcam ab34711). In vitro Enzyme Inhibition Assays: Recombinant human E1 activating enzyme UBA1 (10 nM), E2 enzyme (150 nM), ubiquitin (1 μM), and Mg-ATP (20 μM) are combined in the presence of peptide or vehicle control (1% DMSO) for 45 minutes at room temperature in buffer containing 50 mM NaCl, 50 mM HEPES pH 7.5. Control reaction includes no E1 enzyme. […]

Substance | inhibition of E1-mediated ubiquitin transfer to E2 (conversion of E2 to E2~ubiquitin) | also measured
BSTPX1RRRLBRX2FJRLQ ([Nle]STP[R8]RRRL[Nle]R[S5]F[Dab](Acryloyl)RLQ; staple 5-12; not fully specified (N-terminus, C-terminus); printed as BSTPX1RRRLBRX2FJRLQ) [SEQ ID NO:752, warhead-bearing stapled peptide, J acrylamide-bearing Dab at A11, staple A2 and A9] | – | inhibition of E1-mediated thioester transfer to E2 by warhead-bearing stapled peptides: inhibited E1-mediated thioester transfer to E2
BPSSASRQLLRKX2LKEX2Q [SEQ ID NO:47] | inhibited conversion of E2 to E2˜ubiquitin by E1 | –
X1ALKRIHX2ELJDLARD ([R8]ALKRIH[S5]EL[Dab](Acryloyl)DLARD; staple 1-8; not fully specified (N-terminus, C-terminus); printed as X1ALKRIHX2ELJDLARD) [SEQ ID NO:763, warhead-bearing stapled peptide, J acrylamide-bearing Dab at A11, staple A1 and A8] | – | inhibition of E1-mediated thioester transfer to E2 by warhead-bearing stapled peptides: did not inhibit E1-mediated thioester transfer to E2
BSTPX1RRRLARX2FKRLQ (Ac-[Nle]STP[R8]RRRLAR[S5]FKRLQ-NH2; staple 5-12) [SEQ ID NO:820] | – | inhibition of E1-mediated thioester transfer to E2 by mutant / additional stapled peptides: impair the inhibitory activity of SAH-UBE2A-11
BAGTX1LKRLBAX2YK [SAH-UBE2G2-11] | – | inhibition of E1-mediated thioester transfer to E2, dose response: inhibited E1-mediated thioester transfer to E2 in a dose-dependent manner; also recorded: dose-dependently inhibit E1-mediated thioester transfer to E2
BPSSASRQX2LRKX2LKEIQ [SEQ ID NO:44] | inhibited conversion of E2 to E2˜ubiquitin by E1 | –
BPSSX1SRQLLRX2QLJEIQ ([Nle]PSS[R8]SRQLLR[S5]QL[Dab](Acryloyl)EIQ; staple 5-12; not fully specified (N-terminus, C-terminus); printed as BPSSX1SRQLLRX2QLJEIQ) [SEQ ID NO:841, warhead-bearing stapled peptide, J acrylamide-bearing Dab at A11, staple A1 and A8] | – | inhibition of E1-mediated thioester transfer to E2 by warhead-bearing stapled peptides: inhibited E1-mediated thioester transfer to E2
BX1LKRIHKX2LNDLARD [SAH-UBE2D2-11] | – | inhibition of E1-mediated thioester transfer to E2, dose response: inhibited E1-mediated thioester transfer to E2 in a dose-dependent manner; also recorded: dose-dependently inhibit E1-mediated thioester transfer to E2
BPSSX1SRQLLRX2QLKEIQ [SEQ ID NO:49] | inhibited conversion of E2 to E2˜ubiquitin by E1 | –
BPSSASRQLLRX2QLKX2IQ [SEQ ID NO:46] | inhibited conversion of E2 to E2˜ubiquitin by E1 | –
BPSSASRQLX1RKQLKEX2Q [SEQ ID NO:54] | unable to inhibit E1-mediated ubiquitin transfer to E2 | –
BPSSASRQLX2RKQX2KEIQ [SEQ ID NO:45] | unable to inhibit E1-mediated ubiquitin transfer to E2 | –
BPSSX2SRQX2LRKQLKEIQ [SEQ ID NO:41] | unable to inhibit E1-mediated ubiquitin transfer to E2 | –
BSTPX1RRRLJRX2FKRLQ ([Nle]STP[R8]RRRL[Dab](Acryloyl)R[S5]FKRLQ; staple 5-12; not fully specified (N-terminus, C-terminus); printed as BSTPX1RRRLJRX2FKRLQ) [SEQ ID NO:680, warhead-bearing stapled peptide, J acrylamide-bearing Dab at A7, staple A2 and A9] | – | inhibition of E1-mediated thioester transfer to E2 by warhead-bearing stapled peptides: inhibited E1-mediated thioester transfer to E2
BPSSASX1QLLRKQX2KEIQ [SEQ ID NO:51] | unable to inhibit E1-mediated ubiquitin transfer to E2 | –
BSTPX1RRRABRX2FKRLQ ([Nle]STP[R8]RRRA[Nle]R[S5]FKRLQ-NH2; staple 5-12; not fully specified (N-terminus); printed as BSTPX1RRRABRX2FKRLQ) [SEQ ID NO:819] | – | inhibition of E1-mediated thioester transfer to E2 by mutant / additional stapled peptides: impair the inhibitory activity of SAH-UBE2A-11
BSTPX1RERLBRX2FKRLQ (Ac-[Nle]STP[S5]RERL[Nle]R[R8]FKRLQ-NH2; staple 5-12) [SAH-UBE2A-11-R7E, point mutant negative control stapled peptide] | – | inhibition of E1-mediated thioester transfer to E2 by mutant / additional stapled peptides: reduced inhibitory activity as compared to SAH-UBE2A; inhibition of E1-mediated thioester transfer to a variety of human E2 enzymes (panel of human E2 enzymes (UBE2A, UBE2B, UBE2C, UBE2D1-4 etc.)): diminished inhibitory capacity; also recorded: mitigated by a single point mutation (R7E)
BPSSASRQX1LRKQLKX2IQ [SEQ ID NO:53] | inhibited conversion of E2 to E2˜ubiquitin by E1 | –
BPSSAX2RQLX2RKQLKEIQ [SEQ ID NO:42] | unable to inhibit E1-mediated ubiquitin transfer to E2 | –
BPSSASRX1LLRKQLX2EIQ [SEQ ID NO:52] | inhibited conversion of E2 to E2˜ubiquitin by E1 | –
